Our source for the IC50 values is patent US6951856B2, “Arylethene-sulfonamides” (Actelion Pharmaceuticals Ltd., priority 2000, dated 2005).

In assay [1] the target is T1, human recombinant ETB receptors (Homo sapiens, UniProt P24530).
T1 construct: expressed in transfected cells; host or cells: CHO cells (microsomal membranes)
T1 sequence (P24530 27-442): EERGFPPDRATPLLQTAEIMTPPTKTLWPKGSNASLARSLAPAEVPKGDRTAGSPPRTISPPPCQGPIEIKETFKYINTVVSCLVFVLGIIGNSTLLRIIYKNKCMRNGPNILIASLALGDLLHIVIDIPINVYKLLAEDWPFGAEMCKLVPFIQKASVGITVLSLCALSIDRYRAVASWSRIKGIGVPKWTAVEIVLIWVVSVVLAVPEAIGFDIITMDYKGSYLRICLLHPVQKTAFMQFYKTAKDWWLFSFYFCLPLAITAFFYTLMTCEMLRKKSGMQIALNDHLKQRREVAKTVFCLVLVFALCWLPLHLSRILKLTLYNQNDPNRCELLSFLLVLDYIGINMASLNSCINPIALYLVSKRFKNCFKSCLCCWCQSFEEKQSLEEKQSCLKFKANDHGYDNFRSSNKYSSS
As to the kind of experiment: Inhibition of [125I]ET-1 binding to membranes from CHO cells carrying human ETB receptors. How it is done:
(§1) 1) Inhibition of Endothelin Binding to Membranes from CHO Cells Carrying Human ET Receptors
(§2) For competition binding studies, membranes of CHO cells expressing human recombinant ETA or ETB receptors were used. Microsomal membranes from recombinant CHO cells were prepared and the binding assay made as previously described (Breu V., et al, FEBS Lett 1993; 334:210).
(§3) The assay was performed in 200 uL 50 mM Tris/HCl buffer, pH 7.4, including 25 mM MnCl2, 1 mM EDTA and 0.5% (w/v) BSA in polypropylene microtiter plates. […] After 2 h, the membranes were filtered on filterplates containing GF/C filters (Unifilterplates from Canberra Packard S.A. Zürich, Switzerland). To each well, 50 uL of scintillation cocktail was added (MicroScint 20, Canberra Packard S.A. Zürich, Switzerland) and the filter plates counted in a microplate counter (TopCount, Canberra Packard S.A. Zürich, Switzerland).
(§4) All the test compounds were dissolved, diluted and added in DMSO.

For assay [2], the target named is T2, human recombinant ETA receptors (Homo sapiens, UniProt P25101).
T2 construct: expressed in transfected cells; host or cells: CHO cells (microsomal membranes)
T2 sequence (P25101 21-427): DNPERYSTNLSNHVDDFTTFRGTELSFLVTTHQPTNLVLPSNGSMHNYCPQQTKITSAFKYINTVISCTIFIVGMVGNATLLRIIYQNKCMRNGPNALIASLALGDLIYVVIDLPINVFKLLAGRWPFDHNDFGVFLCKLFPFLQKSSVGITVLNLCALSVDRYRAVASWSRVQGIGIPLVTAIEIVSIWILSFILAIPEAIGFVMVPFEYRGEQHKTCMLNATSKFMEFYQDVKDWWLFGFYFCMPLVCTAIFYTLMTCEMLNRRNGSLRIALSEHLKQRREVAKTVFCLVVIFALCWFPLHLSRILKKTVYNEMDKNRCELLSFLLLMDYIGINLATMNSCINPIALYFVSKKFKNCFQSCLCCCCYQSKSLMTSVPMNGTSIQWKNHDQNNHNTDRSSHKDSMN
As to the kind of experiment: Inhibition of [125I]ET-1 binding to membranes from CHO cells carrying human ETA receptors. Conditions: CHO cell membranes, 8 pM [125I]ET-1, 2 h at 20° C. How it is done:
as §1, §2, §3, §4

Take `Cc1ccc(-c2c(NS(=O)(=O)/C=C/c3ccccc3)ncnc2OCCOc2ccc(Br)cn2)cc1` [Example 11]: the half-maximal inhibitory concentration (IC50) in assay [1] was determined as 264 nM; in assay [2] it was 18.5 nM.

As to `Cc1ccc(-c2c(NS(=O)(=O)/C=C/c3cccc(C)c3)ncnc2OCCOc2ncc(Br)cn2)cc1` [Example 41], the results for the IC50 in assay [1] and in assay [2] were 1780 nM and 5.4 nM, respectively.

Take `COc1cnc(OCCOc2ncnc(NS(=O)(=O)/C=C/c3cccc(C)c3)c2-c2ccc(Cl)cc2)nc1` [Example 53]: the IC50 was determined as 1360 nM in assay [1] and 21 nM in assay [2].

Regarding `COc1ccccc1Oc1c(NS(=O)(=O)/C=C/c2ccccc2)nc(N2CCOCC2)nc1OCCOc1ncc(C(F)(F)F)cn1` [Example 198], the results for the IC50 in assay [1] and in assay [2] were 595 nM and 7.9 nM, respectively.

Regarding `Cc1ccc(-c2c(NS(=O)(=O)/C=C/c3ccc(Cl)cc3)ncnc2OCCOc2ncc(Br)cn2)cc1` [Example 27], the IC50 amounted to 193 nM in assay [1] and 11.5 nM in assay [2].

As for `Cc1ccc(-c2c(NS(=O)(=O)/C=C/c3ccccc3)ncnc2OCCOc2ncccn2)cc1` [Example 2, 2-phenyl-ethenesulfonic acid {6-[2-(pyrimidin-2-yloxy)-ethoxy]-5-p-tolyl-pyrimidin-4-yl}-amide], the IC50 in assay [1] is 1830 nM; in assay [2] it was 25.4 nM.

For `Cc1ccc(-c2c(NS(=O)(=O)/C=C/c3ccccc3)ncnc2OCCOc2ccc(Cl)cc2)cc1` [Example 6], the IC50 came to 1350 nM in assay [1] and 82.4 nM in assay [2].

For the molecule `COc1ccc(Cl)c(Oc2c(NS(=O)(=O)/C=C/c3ccccc3)nc(-c3ccncc3)nc2OCCOc2ncc(Br)cn2)c1` [Example 228], the IC50 in assay [1] is 3910 nM; in assay [2] it was 14.5 nM.

In the case of `COc1cnc(OCCOc2nc(-c3ccncc3)nc(NS(=O)(=O)/C(C)=C/c3ccccc3)c2Oc2ccccc2OC)nc1` [Example 177], the values for the IC50 in assay [1] and in assay [2] were 363 nM and 5.5 nM, respectively.

For `Cc1ccc(-c2c(NS(=O)(=O)/C=C/c3cccs3)ncnc2OCCOc2ccc(Br)cn2)cc1` [Example 71], the IC50 in assay [1] came out at 507 nM; in assay [2], 17 nM.

As for `Cc1ccc(-c2c(NS(=O)(=O)/C=C/c3cccs3)ncnc2OCCOc2ccc(C(F)(F)F)cn2)cc1` [Example 70], the values for the IC50 in assay [1] and in assay [2] were 258 nM and 16 nM, respectively.

For `Cc1ccc(-c2c(NS(=O)(=O)/C=C/c3ccccc3)nc(C3CC3)nc2OCCOc2ncc(Br)cn2)cc1` [Example 132], the results for the IC50 in assay [1] and in assay [2] were 1660 nM and 5.7 nM, respectively.

In the case of `O=S(=O)(/C=C/c1ccccc1)Nc1nc(-c2ccncc2)nc(OCCOc2ncc(Br)cn2)c1-c1ccccc1` [Example 109], the IC50 in assay [1] is greater than 10000 nM; in assay [2] it was 39 nM.

`CCc1ccc(-c2c(NS(=O)(=O)/C=C/c3ccccc3)ncnc2OCCOc2ncc(Br)cn2)cc1` [Example 36]: the 50% inhibitory concentration (IC50) amounted to 3390 nM in assay [1] and 20 nM in assay [2].

For `Cc1ccc(-c2c(NS(=O)(=O)/C=C/c3cccs3)ncnc2OCCOc2ncc(Cl)cn2)cc1` [Example 69], the IC50 in assay [1] was determined as 1650 nM; in assay [2] it was 6 nM.

In the case of `COc1cnc(OCCOc2ncnc(NS(=O)(=O)/C=C/c3ccccc3)c2-c2ccc(Br)cc2)nc1` [Example 86], the IC50 in assay [1] was determined as 193 nM; in assay [2], 4.6 nM.

For the molecule `COc1cccc(Oc2c(NS(=O)(=O)/C=C/c3ccccc3)ncnc2OCCOc2ncc(SC)cn2)c1` [Example 232], the IC50 in assay [1] was found to be 290 nM; in assay [2], 10 nM.

For `C/C(=C\c1ccccc1)S(=O)(=O)Nc1ncnc(OCCOc2ncc(Br)cn2)c1-c1ccc(C)cc1` [Example 30], the half-inhibitory concentration (IC50) in assay [1] was found to be 9070 nM; in assay [2] it was 41.8 nM.

For `COc1ccccc1Oc1c(NS(=O)(=O)/C=C/c2ccsc2)nc(-c2ccncc2)nc1OCCOc1ncc(Br)cn1` [Example 178], the IC50 in assay [1] came out at 671 nM; in assay [2], 5 nM.

For `COc1ccccc1Oc1c(NS(=O)(=O)/C=C/c2ccccc2)ncnc1OCCOc1ncc(SC)cn1` [Example 222], the IC50 amounted to 506 nM in assay [1] and 41 nM in assay [2].

`Cc1ccc(/C=C/S(=O)(=O)Nc2ncnc(OCCOc3ncc(Br)cn3)c2-c2ccc(C)cc2)cc1` [Example 23]: the IC50 in assay [1] is 270 nM; in assay [2] it was 8.2 nM.

On to `COc1cnc(OCCOc2nc(-c3ccncc3)nc(NS(=O)(=O)/C=C/c3ccccc3)c2Oc2ccccc2OC)nc1` [Example 160], for which the IC50 in assay [1] is 757 nM; in assay [2], 12.9 nM.

As for `COc1ccccc1Oc1c(NS(=O)(=O)/C=C/c2ccccc2)nc(-c2cnccn2)nc1OCCOc1ncc(Br)cn1` [Example 182], the IC50 in assay [1] was found to be 1400 nM; in assay [2], 16.7 nM.

In the case of `O=S(=O)(/C=C/c1ccccc1)Nc1ncnc(OCCOc2ncc(F)cn2)c1-c1ccc(Cl)cc1` [Example 50], the IC50 in assay [1] was 6890 nM; in assay [2], 31 nM.

As to `COc1ccccc1Oc1c(NS(=O)(=O)/C=C/c2ccccc2)nc(-c2ccncc2)nc1OCCOc1ncc(Br)cn1` [Example 159], the IC50 came to 2280 nM in assay [1] and 7.3 nM in assay [2].

Consider `O=S(=O)(/C=C/c1ccccc1)Nc1ncnc(OCCOc2ncc(C(F)(F)F)cn2)c1-c1ccccc1` [Example 95], for which the IC50 was found to be 8390 nM in assay [1] and 33 nM in assay [2].

Consider `COc1ccccc1Oc1c(NS(=O)(=O)/C(C)=C/c2ccccc2)nc(-c2ccncc2)nc1OCCOc1ncc(Cl)cn1` [Example 176], for which the values for the IC50 in assay [1] and in assay [2] were 1080 nM and 4.1 nM, respectively.

On to `COc1ccccc1Oc1c(NS(=O)(=O)/C=C/c2ccccc2)nc(N2CCOCC2)nc1OCCOc1ncc(SC)cn1` [Example 204], for which the IC50 worked out at 138 nM in assay [1] and 3.3 nM in assay [2].

As for `COc1cnc(OCCOc2nc(C3CC3)nc(NS(=O)(=O)/C=C/c3ccccc3)c2-c2ccc(C)cc2)nc1` [Example 133], the figures for the IC50 in assay [1] and in assay [2] were 1770 nM and 8.2 nM, respectively.

As for `COc1ccc(-c2c(NS(=O)(=O)/C=C/c3ccccc3)ncnc2OCCOc2ncc(Cl)cn2)cc1` [Example 120], the IC50 came to 1630 nM in assay [1] and 38.7 nM in assay [2].

Turning to `Cc1ccc(-c2c(NS(=O)(=O)/C=C/c3ccccc3)nc(C)nc2OCCOc2ncc(Br)cn2)cc1` [Example 138], the 50% inhibitory concentration (IC50) in assay [1] stood at 1340 nM; in assay [2] it was 4.4 nM.

Consider `COc1cnc(OCCOc2nc(-c3ccncc3)nc(NS(=O)(=O)/C=C/c3ccccc3)c2-c2ccc(C)cc2)nc1` [Example 83], for which the IC50 in assay [1] came to 7590 nM; in assay [2] it was 27.5 nM.

For `COc1cnc(OCCOc2nc(-c3ncccn3)nc(NS(=O)(=O)/C=C/c3ccccc3)c2-c2ccc(C)cc2)nc1` [Example 144], the 50% inhibitory concentration (IC50) in assay [1] turned out to be 3060 nM; in assay [2] it was 10 nM.

As to `Cc1ccc(-c2c(NS(=O)(=O)/C=C/c3ccccc3)nc(C3CC3)nc2OCCOc2ncc(Cl)cn2)cc1` [Example 134], the IC50 in assay [1] was 4890 nM; in assay [2], 6.3 nM.

As to `COc1ccccc1Oc1c(NS(=O)(=O)/C=C/c2ccsc2)nc(-c2ccncc2)nc1OCCOc1ncccn1` [Example 180], the IC50 turned out to be 1030 nM in assay [1] and 7.4 nM in assay [2].

Turning to `Cc1cccc(/C=C/S(=O)(=O)Nc2ncnc(OCCOc3ncc(Br)cn3)c2-c2ccc(Cl)cc2)c1` [Example 52], the results for the IC50 in assay [1] and in assay [2] were 1490 nM and 7.5 nM, respectively.

For `Cc1ccc(-c2c(NS(=O)(=O)/C=C/c3cccs3)nc(-c3ncccn3)nc2OCCOc2ncc(C)cn2)cc1` [Example 75], the values for the IC50 in assay [1] and in assay [2] were greater than 10000 nM and 17.6 nM, respectively.

Turning to `COc1cnc(OCCOc2nc(N3CCOCC3)nc(NS(=O)(=O)/C(C)=C/c3ccccc3)c2Oc2ccccc2OC)nc1` [Example 203], the half-maximal inhibitory concentration (IC50) in assay [1] was 249 nM; in assay [2], 3.4 nM.

In the case of `COc1ccccc1Oc1c(NS(=O)(=O)/C(C)=C/c2ccccc2)nc(-c2ccncc2)nc1OCCOc1ncc(Br)cn1` [Example 175], the concentration for half-maximal inhibition (IC50) in assay [1] came to 499 nM; in assay [2], 4.7 nM.

Turning to `Cc1ccc(-c2c(NS(=O)(=O)/C=C/c3ccccc3)nc(N3CCOCC3)nc2OCCOc2ncc(Br)cn2)cc1` [Example 127], the results for the IC50 in assay [1] and in assay [2] were 2750 nM and 14.2 nM, respectively.

With `COc1cnc(OCCOc2nc(-c3cnccn3)nc(NS(=O)(=O)/C=C/c3ccccc3)c2-c2ccc(C)cc2)nc1` [Example 126], the IC50 was found to be 3640 nM in assay [1] and 9 nM in assay [2].

As usually defined, the IC50 is the concentration at which inhibition is half-maximal.
